Data as given in patent publication US11395854B2, “Trialkyl cationic lipids and methods of use thereof” (ARBUTUS BIOPHARMA CORPORATION, priority 2012, dated 2022).

Tests used:
[1] = test system: ApoB expression in the livers (Liver ApoB:GAPD mRNA ratio); test: murine ApoB siRNA activity model: ApoB knockdown in liver by nucleic acid-lipid particles containing the cationic lipid; type: in vivo, female BALB/c mice
Procedure: This Example compares the effectiveness, in a murine ApoB siRNA activity model, of short chain trialkyl lipids of the present invention with lipids having longer alkyl chains but which are otherwise structurally identical to the short chain trialkyl lipids.
Nucleic acid-lipid particle formulations containing cationic lipids were assessed for their ability to knockdown ApoB expression in the livers of 7 to 9 week old female BALB/c mice. Mice were dosed intravenously (tail vein) in groups of three at either 0.02, 0.03 or 0.05 mg/kg. ApoB knockdown (normalized to the housekeeping gene GAPDH) was measured relative to PBS as a negative control. Each experiment was terminated at 48 hours after dosing.
For comparison to a positive control, the performance of short chain trialkyl lipids of the present invention was compared to a potent cationic lipid, referred to as C2K, that is known to facilitate nucleic acid delivery, in vivo, in nucleic acid-lipid particles (Nature Biotech., Vol 28(2),172 (2010)).

[2] = test system: ApoB (normalized to the housekeeping gene GAPDH), liver; test: murine ApoB model with a different, less potent siRNA sequence; liver ApoB silencing via Quantigene Assay; type: in vivo, Mice; settings: 0.04 mg/kg siRNA; for ApoB gene silencing relative to PBS control (Liver ApoB:GAPD mRNA ratio): intravenous (tail vein), 48 h after dosing, different, less potent siRNA sequence
Procedure: In another experiment, two more lipids of the present invention (Compounds 62 and 71) were formulated into lipid nanoparticles with siRNA to target ApoB. Mice were dosed intravenously (tail vein) and sacrificed 48 h after dosing. Livers were harvested and homogenized, and the level of ApoB silencing (normalized to the housekeeping gene GAPDH) then measured via Quantigene Assay. The results are shown in Table 6 and are expressed as a percentage, relative to a PBS-treated negative control group. […] Inter-experiment comparisons are therefore not possible: […]

[3] = injected dose of 0.03 mg/kg, separate experiment

Row | Structure (SMILES) | activity compared to C2K [1, 3] | activity compared to C2K ([1]; injected dose of 0.02 mg/kg) | further results
1 | CCCCC/C=C\CCCC(CCC/C=C\CCCCC)C(CCC/C=C\CCCCC)OC(=O)N(C)CCCN(C)C (centres unmarked) [Compound 23, (6Z,16Z)-12-((Z)-dec-4-enyl)docosa-6,16-dien-11-yl 3-(dimethylamino)propyl(methyl)carbamate] | greater activity than C2K |  | 
2 | CCCCC/C=C\CCCC(CCC/C=C\CCCCC)C(CCC/C=C\CCCCC)OCCCCN(C)C (centres unmarked) [Compound 62, 4-(((6Z,16Z)-12-((Z)-dec-4-en-1-yl)docosa-6,16-dien-11-yl)oxy)-N,N-dimethylbutan-1-amine] |  |  | activity compared to the DLin-MP-DMA control [2]: significantly more active; ApoB gene silencing relative to PBS control (Liver ApoB:GAPD mRNA ratio) [2]: −56%
3 | CCCCC/C=C\CCC(CC/C=C\CCCCC)C(CC/C=C\CCCCC)OC(=O)CCCN(C)C (centres unmarked) [Compound 40] |  | greater activity than C2K | 
4 | CCCCC/C=C\CCCC(CCC/C=C\CCCCCC)C(CC/C=C\CCCCC)OC(=O)NCCCN(C)C (centres unmarked) [Compound 27, (6Z,15Z)-11-((Z)-dec-4-en-1-yl)docosa-6,15-dien-10-yl (3-(dimethylamino)propyl)carbamate] |  | greater activity than C2K | 
5 | CCCCC/C=C\C/C=C\CCCCCCCCC(CCCCCCCC/C=C\C/C=C\CCCCC)OCCCN(C)C [DLin-MP-DMA, reference compound] |  |  | ApoB gene silencing relative to PBS control (Liver ApoB:GAPD mRNA ratio) [2]: −32%; effectiveness compared to C2K ([1]; three separate experiments, 0.03 or 0.05 mg/kg): more effective than C2K
6 | CCCCC/C=C\CCCC(CCC/C=C\CCCCC)C(CCC/C=C\CCCCC)OC(=O)CCCCN(C)C (centres unmarked) [Compound 13, (6Z,16Z)-12-((Z)-dec-4-enyl)docosa-6,16-dien-11-yl 5-(dimethylamino)pentanoate] | greater activity than C2K | greater activity than C2K | 
7 | CCCCC/C=C\CCCC(CCC/C=C\CCCCC)C(CC/C=C\CCCCC)OC(=O)CCCCN(C)C (centres unmarked) [Compound 19, (6Z,15Z)-11-((Z)-dec-4-enyl)henicosa-6,15-dien-10-yl 5-(dimethylamino)pentanoate] | greater activity than C2K | greater activity than C2K | 
8 | CCCCC/C=C\CCCC(OC(=O)CCCCN(C)C)C(CCCCCCCCCC)CCCCCCCCCC (centres unmarked) [Compound 50, (Z)-12-decyldocos-6-en-11-yl 5-(dimethylamino)pentanoate] |  | greater activity than C2K | 
9 | CCCCC/C=C\CCCC(CCC/C=C\CCCCC)C(CCC/C=C\CCCCC)OC(=O)NCCN(C)C (centres unmarked) [Compound 25, (6Z,16Z)-12-((Z)-dec-4-enyl)docosa-6,16-dien-11-yl 2-(dimethylamino)ethylcarbamate] | greater activity than C2K |  | 
10 | CCCCC/C=C\CCCC(CCC/C=C\CCCCC)C(CC/C=C\CCCCC)OC(=O)CCCN(C)C (centres unmarked) [Compound 22, (6Z,15Z)-11-((Z)-dec-4-enyl)henicosa-6,15-dien-10-yl 4-(dimethylamino)butanoate] |  | greater activity than C2K | 
11 | CC(C)CCCC(C)CCC(CCC(C)CCCC(C)C)C(CCC(C)CCCC(C)C)OC(=O)CCCCN(C)C (centres unmarked) [Compound 71, 10-(3,7-dimethyloctyl)-2,6,13,17-tetramethyloctadecan-9-yl 5-(dimethylamino)pentanoate] |  |  | ApoB gene silencing relative to PBS control (Liver ApoB:GAPD mRNA ratio) [2]: −29%
12 | CCCCC/C=C\CCCC(CCC/C=C\CCCCC)C(CCC/C=C\CCCCC)OC(=O)CCCCCN(C)C (centres unmarked) [Compound 11, (6Z,16Z)-12-((Z)-dec-4-enyl)docosa-6,16-dien-11-yl 6-(dimethylamino)hexanoate] | greater activity than C2K |  | 
13 | CCCCC/C=C\CCCC(CCC/C=C\CCCCC)C(CCC/C=C\CCCCC)OC(=O)CCCN(C)C (centres unmarked) [Compound 9] |  | greater activity than C2K | 
